Where two headings read alike, the source gives them in different places.
Legend:
[1] = tested on: highly resistant strains of Pseudomonas aeruginosa (producing both a plasmid-and chromosomally-mediated β-lactamase); experiment: MIC of compound (i) alone and in combination with compound (iii), Pseudomonas aeruginosa strains; assay type: cell-based; conditions: for MIC µg/ml compound (i) compound (iii) (µg/ml) 2: with compound (iii) 2 µg/ml; for MIC µg/ml compound (i) compound (iii) (µg/ml) 5: with compound (iii) 5 µg/ml; for MIC µg/ml compound (i) compound (iii) (µg/ml) 10: with compound (iii) 10 µg/ml; for MIC µg/ml compound (i) compound (iii) (µg/ml) 1: with compound (iii) 1 µg/ml
[2] = tested on: K-aerogenes strains producing both a plasmid-mediated and chromosomally mediated β-lactamase; experiment: MIC of compound (i) alone and in combination with compound (iii), K. aerogenes strains; assay type: cell-based, Klebsiella aerogenes; conditions: for MIC: Klebsiella aerogenes
Klebsiella aerogenes A = experiment: MIC of compound (i) alone and in the presence of compound (iv), serial dilution in nutrient agar; assay type: cell-based
Method: (§1) Activities of the compound (i) against a number of pathogenic organisms alone, and in the presence of 1.0, 2.5, 5.0 and 10 µg/ml of compound (iv).

[3] = tested on: Staphylococcus aureus Russell; experiment: as above; assay type: cell-based
Method: as §1

## CC1(C)S[C@@H]2[C@H](NC(=O)[C@H](NC(=O)Nc3cnc(Nc4ccc(S(N)(=O)=O)cc4)nc3O)c3ccc(O)cc3)C(=O)N2[C@H]1C(=O)O [compound (i)]
[1]; strain FR13
  MIC µg/ml compound (i) compound (iii) (µg/ml) 2: 10 µg/mL
  MIC µg/ml compound (i) compound (iii) (µg/ml) 5: 5 µg/mL
  MIC µg/ml compound (i) compound (iii) (µg/ml) 10: 2.5 µg/mL
[1]; strain Horton
  MIC µg/ml compound (i) alone: >160 µg/mL
  MIC µg/ml compound (i) compound (iii) (µg/ml) 1: 20 µg/mL
  MIC µg/ml compound (i) compound (iii) (µg/ml) 2: 10 µg/mL
  MIC µg/ml compound (i) compound (iii) (µg/ml) 5: 10 µg/mL
  MIC µg/ml compound (i) compound (iii) (µg/ml) 10: 20 µg/mL
[1]; strain P22
  MIC µg/ml compound (i) alone: >160 µg/mL
  MIC µg/ml compound (i) compound (iii) (µg/ml) 1: 10 µg/mL
  MIC µg/ml compound (i) compound (iii) (µg/ml) 2: 5 µg/mL
  MIC µg/ml compound (i) compound (iii) (µg/ml) 5: 5 µg/mL
  MIC µg/ml compound (i) compound (iii) (µg/ml) 10: 5 µg/mL
[2]; read-out: MIC µg/ml compound (i) alone
  MIC: > 160 µg/mL
[2]; read-out: MIC µg/ml compound (i) alone, Geometric mean
  MIC: > 160 µg/mL
[2]; geometric mean of 11 K. aerogenes strains, with compound (iii) 1 µg/ml, 95% confidence limits (0.49-50.9)
  MIC µg/ml compound (i) compound (iii) (µg/ml) 1, Geometric mean: 5.0 µg/mL
[2]; geometric mean of 11 K. aerogenes strains, with compound (iii) 2 µg/ml, 95% confidence limits (0.3-14.4)
  MIC µg/ml compound (i) compound (iii) (µg/ml) 2, Geometric mean: 2.1 µg/mL
[2]; geometric mean of 11 K. aerogenes strains, with compound (iii) 5 µg/ml, 95% confidence limits (0.14-4.5)
  MIC µg/ml compound (i) compound (iii) (µg/ml) 5, Geometric mean: 0.81 µg/mL
[2]; geometric mean of 11 K. aerogenes strains, with compound (iii) 10 µg/ml, 95% confidence limits (0.04-0.9)
  MIC µg/ml compound (i) compound (iii) (µg/ml) 10, Geometric mean: 0.19 µg/mL
[2]; strain 11793
  MIC µg/ml compound (i) alone: >160 µg/mL
[2]; strain 11793, with compound (iii) 1 µg/ml
  MIC µg/ml compound (i) compound (iii) (µg/ml) 1: 10 µg/mL
[2]; strain 11793, with compound (iii) 2 µg/ml
  MIC µg/ml compound (i) compound (iii) (µg/ml) 2: 5 µg/mL
[2]; strain 11793, with compound (iii) 5 µg/ml
  MIC µg/ml compound (i) compound (iii) (µg/ml) 5: 2.5 µg/mL
[2]; strain 11793, with compound (iii) 10 µg/ml
  MIC µg/ml compound (i) compound (iii) (µg/ml) 10: 1.25 µg/mL
[2]; strain 11974
  MIC µg/ml compound (i) alone: >160 µg/mL
[2]; strain 11974, with compound (iii) 1 µg/ml
  MIC µg/ml compound (i) compound (iii) (µg/ml) 1: 0.31 µg/mL
[2]; strain 11974, with compound (iii) 2 µg/ml
  MIC µg/ml compound (i) compound (iii) (µg/ml) 2: 0.16 µg/mL
[2]; strain 11974, with compound (iii) 5 µg/ml
  MIC µg/ml compound (i) compound (iii) (µg/ml) 5: 0.08 µg/mL
[2]; strain 11974, with compound (iii) 10 µg/ml
  MIC µg/ml compound (i) compound (iii) (µg/ml) 10: 0.04 µg/mL
[2]; strain BED4, with compound (iii) 2 µg/ml
  MIC µg/ml compound (i) compound (iii) (µg/ml) 2: 2.5 µg/mL
[2]; strain BED4, with compound (iii) 5 µg/ml
  MIC µg/ml compound (i) compound (iii) (µg/ml) 5: 1.25 µg/mL
[2]; strain BED4, with compound (iii) 10 µg/ml
  MIC µg/ml compound (i) compound (iii) (µg/ml) 10: 0.31 µg/mL
[2]; strain BED6
  MIC µg/ml compound (i) alone: >160 µg/mL
[2]; strain BED6, with compound (iii) 1 µg/ml
  MIC µg/ml compound (i) compound (iii) (µg/ml) 1: 0.62 µg/mL
[2]; strain BED6, with compound (iii) 2 µg/ml
  MIC µg/ml compound (i) compound (iii) (µg/ml) 2: 0.31 µg/mL
[2]; strain BED6, with compound (iii) 5 µg/ml
  MIC µg/ml compound (i) compound (iii) (µg/ml) 5: 0.16 µg/mL
[2]; strain BED6, with compound (iii) 10 µg/ml
  MIC µg/ml compound (i) compound (iii) (µg/ml) 10: 0.08 µg/mL
[2]; strain BED9
  MIC µg/ml compound (i) alone: >160 µg/mL
[2]; strain BED9, with compound (iii) 1 µg/ml
  MIC µg/ml compound (i) compound (iii) (µg/ml) 1: 0.31 µg/mL
[2]; strain BED9, with compound (iii) 2 µg/ml
  MIC µg/ml compound (i) compound (iii) (µg/ml) 2: 0.31 µg/mL
[2]; strain BED9, with compound (iii) 5 µg/ml
  MIC µg/ml compound (i) compound (iii) (µg/ml) 5: 0.16 µg/mL
[2]; strain BED9, with compound (iii) 10 µg/ml
  MIC µg/ml compound (i) compound (iii) (µg/ml) 10: 0.04 µg/mL
[2]; strain Ba95
  MIC µg/ml compound (i) alone: >160 µg/mL
[2]; strain Ba95, with compound (iii) 1 µg/ml
  MIC µg/ml compound (i) compound (iii) (µg/ml) 1: 0.31 µg/mL
[2]; strain Ba95, with compound (iii) 2 µg/ml
  MIC µg/ml compound (i) compound (iii) (µg/ml) 2: 0.31 µg/mL
[2]; strain Ba95, with compound (iii) 5 µg/ml
  MIC µg/ml compound (i) compound (iii) (µg/ml) 5: 0.16 µg/mL
[2]; strain Ba95, with compound (iii) 10 µg/ml
  MIC µg/ml compound (i) compound (iii) (µg/ml) 10: 0.02 µg/mL
[2]; strain SA4
  MIC µg/ml compound (i) alone: >160 µg/mL
[2]; strain SA4, with compound (iii) 1 µg/ml
  MIC µg/ml compound (i) compound (iii) (µg/ml) 1: 2.5 µg/mL
[2]; strain SA4, with compound (iii) 2 µg/ml
  MIC µg/ml compound (i) compound (iii) (µg/ml) 2: 1.25 µg/mL
[2]; strain SA4, with compound (iii) 5 µg/ml
  MIC µg/ml compound (i) compound (iii) (µg/ml) 5: 0.31 µg/mL
[2]; strain SA4, with compound (iii) 10 µg/ml
  MIC µg/ml compound (i) compound (iii) (µg/ml) 10: 0.08 µg/mL
[2]; strain VA1
  MIC µg/ml compound (i) alone: >160 µg/mL
[2]; strain VA1, with compound (iii) 1 µg/ml
  MIC µg/ml compound (i) compound (iii) (µg/ml) 1: 10 µg/mL
[2]; strain VA1, with compound (iii) 2 µg/ml
  MIC µg/ml compound (i) compound (iii) (µg/ml) 2: 5 µg/mL
[2]; strain VA1, with compound (iii) 5 µg/ml
  MIC µg/ml compound (i) compound (iii) (µg/ml) 5: 2.5 µg/mL
[2]; strain VA1, with compound (iii) 10 µg/ml
  MIC µg/ml compound (i) compound (iii) (µg/ml) 10: 0.31 µg/mL
[2]; strain VA2
  MIC µg/ml compound (i) alone: >160 µg/mL
[2]; strain VA2, with compound (iii) 1 µg/ml
  MIC µg/ml compound (i) compound (iii) (µg/ml) 1: 40 µg/mL
[2]; strain VA2, with compound (iii) 2 µg/ml
  MIC µg/ml compound (i) compound (iii) (µg/ml) 2: 10 µg/mL
[2]; strain VA2, with compound (iii) 5 µg/ml
  MIC µg/ml compound (i) compound (iii) (µg/ml) 5: 2.5 µg/mL
[2]; strain VA2, with compound (iii) 10 µg/ml
  MIC µg/ml compound (i) compound (iii) (µg/ml) 10: 0.62 µg/mL
[2]; strain VA3
  MIC µg/ml compound (i) alone: >160 µg/mL
[2]; strain VA3, with compound (iii) 1 µg/ml
  MIC µg/ml compound (i) compound (iii) (µg/ml) 1: 40 µg/mL
[2]; strain VA3, with compound (iii) 2 µg/ml
  MIC µg/ml compound (i) compound (iii) (µg/ml) 2: 10 µg/mL
[2]; strain VA3, with compound (iii) 5 µg/ml
  MIC µg/ml compound (i) compound (iii) (µg/ml) 5: 2.5 µg/mL
[2]; strain VA3, with compound (iii) 10 µg/ml
  MIC µg/ml compound (i) compound (iii) (µg/ml) 10: 0.31 µg/mL
[2]; strain VA5
  MIC µg/ml compound (i) alone: >160 µg/mL
[2]; strain VA5, with compound (iii) 1 µg/ml
  MIC µg/ml compound (i) compound (iii) (µg/ml) 1: >80 µg/mL
[2]; strain VA5, with compound (iii) 2 µg/ml
  MIC µg/ml compound (i) compound (iii) (µg/ml) 2: 80 µg/mL
[2]; strain VA5, with compound (iii) 5 µg/ml
  MIC µg/ml compound (i) compound (iii) (µg/ml) 5: 20 µg/mL
[2]; strain VA5, with compound (iii) 10 µg/ml
  MIC µg/ml compound (i) compound (iii) (µg/ml) 10: 2.5 µg/mL
Klebsiella aerogenes A; compound (iv) 0 μg/ml (alone)
  MIC (μg/ml) for compound (i): 5.0 µg/mL
Klebsiella aerogenes A; compound (iv) 1.0 μg/ml
  MIC (μg/ml) for compound (i): 0.05 µg/mL
Klebsiella aerogenes A; compound (iv) 2.5 μg/ml
  MIC (μg/ml) for compound (i): 0.05 µg/mL
Klebsiella aerogenes A; compound (iv) 5.0 μg/ml
  MIC (μg/ml) for compound (i): 0.05 µg/mL
Klebsiella aerogenes A; compound (iv) 10 μg/ml
  MIC (μg/ml) for compound (i): 0.05 µg/mL
[3]; compound (iv) 0 μg/ml (alone)
  MIC (μg/ml) for compound (i): 50 µg/mL
[3]; compound (iv) 1.0 μg/ml
  MIC (μg/ml) for compound (i): 2.5 µg/mL
[3]; compound (iv) 2.5 μg/ml
  MIC (μg/ml) for compound (i): 2.5 µg/mL
[3]; compound (iv) 5.0 μg/ml
  MIC (μg/ml) for compound (i): 1.0 µg/mL
[3]; compound (iv) 10 μg/ml
  MIC (μg/ml) for compound (i): 1.0 µg/mL
